Results on ten compounds are retold here after patent publication US20100173834A1, “CYCLIC PEPTIDE MELANOCORTIN RECEPTOR LIGANDS” (priority 2007, published 2010).

In general, Ki refers to the dissociation constant of the complex between target and ligand, obtained from inhibition or displacement. Low values mean higher affinity, high ones lower affinity. What is called EC50 is the concentration needed to bring the measured effect to its halfway point. High values mean weaker potency, low ones greater potency.

Where a SMILES comes first, the peptide text is derived from it. Bridges are numbered along the chain shown (N, C = ends). [ ]: non-standard residue; d: D form.

Test [1] concerns the target T1, hMC3-R (Homo sapiens, UniProt P41968).
T1 construct: expressed in transfected cells; host or cells: CHO-K1
In words: Radioligand binding assay, hMC3-R. The procedure:
(§1) The pellets were resuspended in the same buffer and centrifuged at 50,000 g for 10 minutes at approximately 4° C. The washed pellets containing the cellular membranes were stored at approximately −80° C.
(§2) Filters were washed three times with 50 mM Tris-HCl at pH 7.4 at a temperature of approximately 0-4° C. and then assayed for radioactivity using a Packard Topcount® scintillation counter (GMI, Inc., Ramsey, Minn.).

The target of test [2] is T2, hMC1-R (Homo sapiens, UniProt Q01726). As to the kind of experiment: Radioligand binding assay, hMC1-R. Further details: expressed in transfected cells; host or cells: CHO-K1. The procedure: (§3) The CHO-K1 cells expressing the desired hMC-R receptor type were sonicated (Branson, Danbury, Conn.) (etting 7, approximately 30 sec) in ice-cold 50 mM Tris-HCl at pH 7.4 and then centrifuged at 39,000 g for 10 minutes at approximately 4° C. The pellets were resuspended in the same buffer and centrifuged at 50,000 g for 10 minutes at approximately 4° C. The washed pellets containing the cellular membranes were stored at approximately −80° C.
T2 sequence (Q01726 whole entry): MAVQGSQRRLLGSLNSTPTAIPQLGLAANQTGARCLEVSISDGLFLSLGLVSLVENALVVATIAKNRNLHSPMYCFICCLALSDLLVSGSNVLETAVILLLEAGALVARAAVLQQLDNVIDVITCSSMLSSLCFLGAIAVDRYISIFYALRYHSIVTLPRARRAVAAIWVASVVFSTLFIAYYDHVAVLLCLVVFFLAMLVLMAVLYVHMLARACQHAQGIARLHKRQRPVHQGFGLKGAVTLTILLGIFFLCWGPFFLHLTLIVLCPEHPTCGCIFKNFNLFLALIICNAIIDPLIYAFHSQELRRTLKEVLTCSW
as §2

The target in test [3] is T2, hMC1-R. In words: Cyclic AMP bioassay, hMC1-R.
Procedure: (§4) Intracellular cyclic AMP (cAMP) levels were determined by an electrochemiluminescence (ECL) assay (Meso Scale Discovery, Gaithersburg, Md.) (referred to hereinafter as “MSD”). […] Transgenic CHO-K1 cells stably expressing hMC receptor subtypes 1, 3, 4 or 5 were dispensed at a density of approximately 7,000 cells/well in 384-well Multi-Array plates (MSD) containing integrated carbon electrodes and coated with anti-cAMP antibody. Increasing concentrations of the test compounds were added and the cells were incubated for approximately 40 minutes at approximately 37° C. […] At the end of the second incubation period read buffer (Tris-buffered solution containing an ECL co-reactant and Triton X-100 at ph 7.8) was added and the cAMP levels in the cell lysates were immediately determined by ECL detection with a Sector Imager 6000 reader® (MSD). Data were analyzed using a computer-assisted non-linear regression analysis (XL fit; IDBS) and reported as either an EC50 value or a Kb value.
(§5) The Kb value reflects the potency of an antagonist and is determined by Schild analysis. In brief, concentration-response curves of an agonist are carried out in the presence of increasing concentrations of an antagonist. […] It is calculated by extrapolating the line on a Schild plot to zero on the y-axis.
In test [4] the target is T3, hMC5-R (Homo sapiens, UniProt P33032).
T3 construct: expressed in transfected cells; host or cells: CHO-K1
T3 sequence (P33032 whole entry): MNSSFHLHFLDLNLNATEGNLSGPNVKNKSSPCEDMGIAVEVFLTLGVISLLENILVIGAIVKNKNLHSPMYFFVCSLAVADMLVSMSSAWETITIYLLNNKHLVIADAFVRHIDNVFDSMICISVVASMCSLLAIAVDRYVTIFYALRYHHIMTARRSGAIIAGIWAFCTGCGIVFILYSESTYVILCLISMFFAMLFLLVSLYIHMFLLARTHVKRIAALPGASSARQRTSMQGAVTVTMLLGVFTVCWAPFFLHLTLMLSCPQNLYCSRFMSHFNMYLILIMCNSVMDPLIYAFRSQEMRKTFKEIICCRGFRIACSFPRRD
As to the kind of experiment: Cyclic AMP bioassay, hMC5-R. Type of test: cell-based.
Procedure: as §4, §5

For test [5], the target named is T1, hMC3-R. In words: Cyclic AMP bioassay, hMC3-R. The test is classed as cell-based.
Procedure: as §4, §5
Test [6] deals with T4, hMC4-R (Homo sapiens, UniProt P32245).
T4 construct: expressed in transfected cells; host or cells: CHO-K1
T4 sequence (P32245 whole entry): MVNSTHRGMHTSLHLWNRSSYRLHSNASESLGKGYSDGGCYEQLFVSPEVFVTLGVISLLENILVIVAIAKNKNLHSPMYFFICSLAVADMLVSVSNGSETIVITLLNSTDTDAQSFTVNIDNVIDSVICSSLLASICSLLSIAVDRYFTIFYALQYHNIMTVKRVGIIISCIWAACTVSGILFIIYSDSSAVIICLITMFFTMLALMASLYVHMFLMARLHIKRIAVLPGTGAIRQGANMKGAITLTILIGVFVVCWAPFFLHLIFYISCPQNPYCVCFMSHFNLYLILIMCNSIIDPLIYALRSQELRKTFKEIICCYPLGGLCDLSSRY
As to the kind of experiment: Radioligand binding assay, hMC4-R. The procedure:
as §1, §2

The target in test [7] is T4, hMC4-R. As to the kind of experiment: Cyclic AMP bioassay, hMC4-R. The test is classed as cell-based.
Procedure: as §4, §5
The target in test [8] is T3, hMC5-R. In words: Radioligand binding assay, hMC5-R. The protocol:
as §3, §2

In test [9] the target is human melanocortin 3 receptor (human) (UniProt P41968). As to the kind of experiment: cell-based or functional assay.
human melanocortin 3 receptor (human), sequence (P41968 whole entry): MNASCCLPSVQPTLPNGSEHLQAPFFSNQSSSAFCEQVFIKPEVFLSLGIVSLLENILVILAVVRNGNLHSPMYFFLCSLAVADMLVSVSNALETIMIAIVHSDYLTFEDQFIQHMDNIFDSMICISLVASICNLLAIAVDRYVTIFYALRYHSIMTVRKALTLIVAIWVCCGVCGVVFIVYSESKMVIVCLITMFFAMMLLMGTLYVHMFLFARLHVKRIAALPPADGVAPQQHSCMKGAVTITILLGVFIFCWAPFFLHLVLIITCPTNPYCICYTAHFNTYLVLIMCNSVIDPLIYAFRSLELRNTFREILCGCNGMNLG
The target in test [10] is human melanocortin 1 receptor (human) (UniProt Q01726). In words: cell-based or functional assay.
human melanocortin 1 receptor (human), sequence (Q01726 whole entry): as the sequence (Q01726 whole entry) above
The target of test [11] is human melanocortin 5 receptor (human) (UniProt P33032). In words: cell-based or functional assay.
human melanocortin 5 receptor (human), sequence (P33032 whole entry): as the sequence (P33032 whole entry) above
Test [12] deals with human melanocortin 4 receptor (human) (UniProt P32245). In words: cell-based or functional assay.
human melanocortin 4 receptor (human), sequence (P32245 whole entry): as the sequence (P32245 whole entry) above
Test [13] deals with human melanocortin 3 receptor (human) (UniProt P41968). As to the kind of experiment: competitive displacement of [125I]-NDP-alpha-MSH, membranes of CHO-K1 cells expressing hMC3-R. On the technique in general: Displacement assays read how much labelled ligand stays bound in the presence of the test substance.

T1 sequence (P41968 whole entry): as the sequence (P41968 whole entry) above

As for `CC(=O)N[C@@H](Cc1cccc2ccccc12)C(=O)N[C@@H](CCCNC(=N)N)C(=O)N[C@H]1CSSC[C@@H](C(N)=O)NC(=O)[C@H](Cc2c[nH]c3ccccc23)NC(=O)[C@H](CCCNC(=N)N)NC(=O)[C@@H](Cc2ccccc2)NC(=O)[C@H](Cc2c[nH]cn2)NC(=O)[C@@H](C)NC1=O` [Ac-1-Nal-Arg-c(Cys-D-Ala-His-D-Phe-Arg-Trp-Cys)-NH2], the Ki is 36.4 nM in test [1], 6.27 nM in test [2], 1.53 nM in [6] and 888 nM in test [8]. The concentration giving a half-maximal response (EC50) in test [3] came out at 8.67 nM; in [4] it was 1320 nM; in [5] it was 4.21 nM; in test [7], 0.363 nM.

As for `CC(=O)N[C@@H](Cc1ccc2ccccc2c1)C(=O)N[C@@H](CCCNC(=N)N)C(=O)N[C@H]1CSSC[C@@H](C(N)=O)NC(=O)[C@H](Cc2c[nH]c3ccccc23)NC(=O)[C@H](CCCNC(=N)N)NC(=O)[C@@H](Cc2ccccc2)NC(=O)[C@H](Cc2c[nH]cn2)NC(=O)[C@@H](C)NC1=O` [Ac-2-Nal-Arg-c(Cys-D-Ala-His-D-Phe-Arg-Trp-Cys)-NH2], the Ki in test [1] came to 34.9 nM; in [2], 6.09 nM; in test [6], 2.02 nM; in test [8] it was 864 nM. For the same compound, the EC50 was found to be 9.66 nM in test [3], 1730 nM in test [4], 6.11 nM in test [5] and 0.275 nM in test [7].

Consider `CC(=O)N[C@@H](Cc1c(F)c(F)c(F)c(F)c1F)C(=O)N[C@@H](CCCNC(=N)N)C(=O)N[C@H]1CSSC[C@@H](C(N)=O)NC(=O)[C@H](Cc2c[nH]c3ccccc23)NC(=O)[C@H](CCCNC(=N)N)NC(=O)[C@@H](Cc2ccccc2)NC(=O)[C@H](Cc2c[nH]cn2)NC(=O)[C@@H](C)NC1=O` [Ac-Pff-Arg-c(Cys-D-Ala-His-D-Phe-Arg-Trp-Cys)-NH2], for which the inhibition constant (Ki) in test [1] came out at 1.33 nM; in test [2] it was 0.323 nM; in [6] it was 1.95 nM; in [8] it was 786 nM.

On to `CC(=O)N[C@@H](Cc1ccccc1)C(=O)N[C@@H](CCCNC(=N)N)C(=O)N[C@H]1CSSC[C@@H](C(N)=O)NC(=O)[C@H](Cc2c[nH]c3ccccc23)NC(=O)[C@H](CCCNC(=N)N)NC(=O)[C@@H](Cc2ccccc2)NC(=O)[C@H](Cc2c[nH]cn2)NC(=O)[C@@H](C)NC1=O` [Ac-Phe-Arg-c(Cys-D-Ala-His-D-Phe-Arg-Trp-Cys)-NH2] (Ac-FRC[dA]H[dF]RWC-NH2; disulfide 3-9), for which the Ki in test [1] turned out to be 14.8 nM; in test [2], 1.48 nM; in [6] it was 2.34 nM; in [8], 491 nM.

Regarding `CC(=O)N[C@@H](Cc1c[nH]c2ccccc12)C(=O)N[C@@H](CCCNC(=N)N)C(=O)N[C@H]1CSSC[C@@H](C(N)=O)NC(=O)[C@H](Cc2c[nH]c3ccccc23)NC(=O)[C@H](CCCNC(=N)N)NC(=O)[C@@H](Cc2ccccc2)NC(=O)[C@H](Cc2c[nH]cn2)NC(=O)[C@@H](C)NC1=O` [Ac-Trp-Arg-c(Cys-D-Ala-His-D-Phe-Arg-Trp-Cys)-NH2] (Ac-WRC[dA]H[dF]RWC-NH2; disulfide 3-9), the Ki in [1] was determined as 42 nM; in test [2] it was 4.7 nM; in test [6], 2.25 nM; in [8] it was 1470 nM. The EC50 in test [3] stood at 5.78 nM; in test [4], 2580 nM; in test [5], 3.95 nM; in test [7] it was 0.219 nM.

Consider `CC(=O)N[C@@H](Cc1ccc(O)cc1)C(=O)N[C@@H](CCCNC(=N)N)C(=O)N[C@H]1CSSC[C@@H](C(N)=O)NC(=O)[C@H](Cc2c[nH]c3ccccc23)NC(=O)[C@H](CCCNC(=N)N)NC(=O)[C@@H](Cc2ccccc2)NC(=O)[C@H](Cc2c[nH]cn2)NC(=O)[C@@H](C)NC1=O` [Ac-Tyr-Arg-c(Cys-D-Ala-His-D-Phe-Arg-Trp-Cys)-NH2], for which, in test [4], the EC50 is 1540 nM. The affinity in [8], expressed as Ki, was 714 nM.

In turn, “Ac-1-Nal-Arg-c(Cys-D-Ala-His-D-Phe-Arg-Trp-Cys)-NH2 (peptide)” had an EC50, cAMP bioassay (ECL) in CHO-K1 cells expressing hMC3-R in test [9] of 4.21 nM. The compound further returned an EC50, cAMP bioassay (ECL) in CHO-K1 cells expressing hMC1-R in test [10] of 8.67 nM. The EC50, cAMP bioassay (ECL) in CHO-K1 cells expressing hMC5-R in test [11] came to 1320 nM. Further, the EC50, cAMP bioassay (ECL) in CHO-K1 cells expressing hMC4-R in test [12] amounted to 0.363 nM.

Consider “Ac-2-Nal-Arg-c(Cys-D-Ala-His-D-Phe-Arg-Trp-Cys)-NH2 (peptide)”, for which the EC50, cAMP bioassay (ECL) in CHO-K1 cells expressing hMC3-R in test [9] was determined as 6.11 nM. The compound also returned an EC50, cAMP bioassay (ECL) in CHO-K1 cells expressing hMC1-R in test [10] of 9.66 nM. Also, the EC50, cAMP bioassay (ECL) in CHO-K1 cells expressing hMC5-R in [11] was 1730 nM. For the same compound, in test [12], the EC50, cAMP bioassay (ECL) in CHO-K1 cells expressing hMC4-R stood at 0.275 nM.

On to “Ac-Trp-Arg-c(Cys-D-Ala-His-D-Phe-Arg-Trp-Cys)-NH2 (peptide)”, for which the EC50, cAMP bioassay (ECL) in CHO-K1 cells expressing hMC3-R in test [9] came out at 3.95 nM. This compound yielded an EC50, cAMP bioassay (ECL) in CHO-K1 cells expressing hMC1-R in test [10] of 5.78 nM. The EC50, cAMP bioassay (ECL) in CHO-K1 cells expressing hMC5-R in test [11] was 2580 nM. Besides, the EC50, cAMP bioassay (ECL) in CHO-K1 cells expressing hMC4-R in test [12] came out at 0.219 nM.

“Ac-Tyr-Arg-c(Cys-D-Ala-His-D-Phe-Arg-Trp-Cys)-NH2 (peptide)” registered an EC50, cAMP bioassay (ECL) in CHO-K1 cells expressing hMC3-R in test [9] of 2.39 nM. The EC50, cAMP bioassay (ECL) in CHO-K1 cells expressing hMC5-R in test [11] turned out to be 1540 nM. The compound also registered a Ki in [13] of 21.2 nM.
